Laboratory results as given in ChEMBL document CHEMBL5360646, “Optimization of M3 Antagonist-PDE4 Inhibitor (MAPI) Dual Pharmacology Molecules for the Treatment of COPD” (J Med Chem, 2023).
Values after ≈ are worked out from the molar mass of the structure shown. Active and inactive are the calls of the source. The rule behind the calls is not given here.

Assays:
[1] = biological target: Muscarinic acetylcholine receptor M3 (Homo sapiens, UniProt P20309); test: Displacement of [3H]N-methylscopolamine chloride from human muscarinic M3 receptor incubated for 2 hrs by radioligand binding assay
[2] = tested on: Trachea; test: Bronchoconstriction activity in Sprague-Dawley rat trachea assessed as inhibition of carbachol-induced tracheal contraction; format: functional, tissue-based; details: Rattus norvegicus, Sprague-Dawley, Trachea
[3] = biological target: T1, 3',5'-cyclic-AMP phosphodiesterase 4B (Homo sapiens, UniProt Q07343); test: Inhibition of human recombinant PDE4B2 expressed in baculovirus expression system using cAMP as substrate incubated for 2 hrs by HTRF assay
T1 sequence (Q07343 whole entry): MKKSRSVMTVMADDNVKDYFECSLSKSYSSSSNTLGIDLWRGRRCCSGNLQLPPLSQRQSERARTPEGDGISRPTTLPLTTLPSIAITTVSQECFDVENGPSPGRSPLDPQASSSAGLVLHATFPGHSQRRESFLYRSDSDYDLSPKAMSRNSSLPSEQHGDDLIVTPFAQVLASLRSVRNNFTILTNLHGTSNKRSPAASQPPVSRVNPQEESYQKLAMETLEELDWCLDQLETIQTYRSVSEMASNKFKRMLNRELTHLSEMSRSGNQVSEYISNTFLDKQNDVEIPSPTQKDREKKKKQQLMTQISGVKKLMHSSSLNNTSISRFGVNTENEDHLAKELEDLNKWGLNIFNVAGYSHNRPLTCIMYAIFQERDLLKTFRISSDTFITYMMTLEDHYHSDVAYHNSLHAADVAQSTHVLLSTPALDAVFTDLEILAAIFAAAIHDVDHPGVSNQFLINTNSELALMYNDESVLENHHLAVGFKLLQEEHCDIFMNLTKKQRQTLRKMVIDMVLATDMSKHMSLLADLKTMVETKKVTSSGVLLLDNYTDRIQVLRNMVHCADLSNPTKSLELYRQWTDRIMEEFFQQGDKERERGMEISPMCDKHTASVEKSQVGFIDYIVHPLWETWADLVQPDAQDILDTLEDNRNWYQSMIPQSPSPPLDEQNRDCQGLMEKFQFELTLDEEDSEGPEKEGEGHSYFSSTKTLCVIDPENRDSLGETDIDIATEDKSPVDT

[4] = Antiinflammatory activity against LPS-stimulated human PBMC cells assessed reduction in TNFalpha level incubated for 18 hrs by ELISA analysis; format: functional, cell-based; details: Homo sapiens, PBMC, 18 h
[5] = tested on: Rattus norvegicus; test: Anti-bronchospastic activity in carbachol-induced bronchospasm Sprague-Dawley rat model assessed as inhibition of carbachol-induced bronchoconstriction administered IT(Intratracheal) for 1 hr prior to carbachol challenge; format: functional; details: Rattus norvegicus, Sprague-Dawley, read-out: ED50
[6] = tested on: Rattus norvegicus; test: Anti-bronchospastic activity in carbachol-induced bronchospasm Sprague-Dawley rat model assessed as inhibition of carbachol-induced bronchoconstriction at 30 nmol/kg, IT(Intratracheal) administered 1 hr prior to carbachol challenge; format: functional; parameters: scale not given: the % may be the effect or the level left
[7] = tested on: Rattus norvegicus; test: Anti-bronchospastic activity in carbachol-induced bronchospasm Sprague-Dawley rat model assessed as inhibition of carbachol-induced bronchoconstriction at 30 nmol/kg, IT(Intratracheal) administered 16 hr prior to carbachol challenge; format: functional; parameters: scale not given: the % may be the effect or the level left
[8] = tested on: Rattus norvegicus; test: Anti-inflammatory activity against OVA-sensitized Brown-Norway rat airway inflammation model assessed as inhibition of OVA-induced eosinophil influx administered IT(Intratracheal) 2 hrs prior to OVA challenge; format: functional
[9] = Ratio of ED50 for Anti-inflammatory activity against OVA-sensitized Brown-Norway rat airway inflammation model to ED50 for Anti-bronchospastic activity in carbachol-induced bronchospasm Sprague-Dawley rat model; format: functional
[10] = tested on: Rattus norvegicus; test: Anti-inflammatory activity against OVA-sensitized Brown-Norway rat airway inflammation model assessed as inhibition of OVA-induced eosinophil influx in BALF at 30 nmol/kg, IT(Intratracheal) pretreated 24 hrs prior to OVA challenge and measured after 48 hrs by automated cell counter analysis; format: functional; parameters: scale not given: the % may be the effect or the level left
[11] = tested on: Rattus norvegicus; test: Anti-inflammatory activity against OVA-sensitized Brown-Norway rat airway inflammation model assessed as inhibition of OVA-induced eosinophil influx at 1 nmol/kg,IT(Intratracheal) pretreated 2 hrs prior to OVA challenge by automated cell counter analysis; format: functional; parameters: scale not given: the % may be the effect or the level left
[12] = tested on: Rattus norvegicus; test: Anti-inflammatory activity against OVA-sensitized Brown-Norway rat airway inflammation model assessed as inhibition of OVA-induced eosinophil influx at 10 nmol/kg,IT(Intratracheal) pretreated 2 hrs prior to OVA challenge by automated cell counter analysis; format: functional; parameters: scale not given: the % may be the effect or the level left
[13] = tested on: Rattus norvegicus; test: Anti-inflammatory activity against OVA-sensitized Brown-Norway rat airway inflammation model assessed as inhibition of OVA-induced eosinophil influx at 100 nmol/kg,IT(Intratracheal) pretreated 2 hrs prior to OVA challenge by automated cell counter analysis; format: functional; parameters: scale not given: the % may be the effect or the level left
[14] = tested on: Rattus norvegicus; test: Anti-inflammatory activity against OVA-sensitized Brown-Norway rat airway inflammation model assessed as inhibition of OVA-induced eosinophil influx at 10 nmol/kg,IT(Intratracheal) pretreated 24 hrs prior to OVA challenge and measured after 48 hrs by automated cell counter analysis; format: functional; parameters: scale not given: the % may be the effect or the level left
[15] = tested on: Rattus norvegicus; test: Anti-inflammatory activity against OVA-sensitized Brown-Norway rat airway inflammation model assessed as inhibition of OVA-induced eosinophil influx at 100 nmol/kg,IT(Intratracheal) pretreated 24 hrs prior to OVA challenge and measured after 48 hrs by automated cell counter analysis; format: functional; parameters: scale not given: the % may be the effect or the level left; details: time 72 hrs
[16] = tested on: Rattus norvegicus; test: Anti-inflammatory activity against OVA-sensitized Brown-Norway rat airway inflammation model assessed as inhibition of OVA-induced eosinophil influx at 1000 nmol/kg,IT(Intratracheal) pretreated 24 hrs prior to OVA challenge and measured after 48 hrs by automated cell counter analysis; format: functional; parameters: scale not given: the % may be the effect or the level left; details: time 72 hrs
[17] = tested on: Rattus norvegicus; test: Anti-inflammatory activity against OVA-sensitized Brown-Norway rat airway inflammation model assessed as inhibition of OVA-induced eosinophil influx administered IT(Intratracheal) pretreated 24 hrs prior to OVA challenge and measured after 48 hrs by automated cell counter analysis; format: functional; details: time 72 hrs
[18] = biological target: T2, Muscarinic acetylcholine receptor M2 (Homo sapiens, UniProt P08172); test: Displacement of [3H]N-methylscopolamine chloride from human muscarinic M2 receptor incubated for 2 hrs by radioligand binding assay
T2 sequence (P08172 whole entry): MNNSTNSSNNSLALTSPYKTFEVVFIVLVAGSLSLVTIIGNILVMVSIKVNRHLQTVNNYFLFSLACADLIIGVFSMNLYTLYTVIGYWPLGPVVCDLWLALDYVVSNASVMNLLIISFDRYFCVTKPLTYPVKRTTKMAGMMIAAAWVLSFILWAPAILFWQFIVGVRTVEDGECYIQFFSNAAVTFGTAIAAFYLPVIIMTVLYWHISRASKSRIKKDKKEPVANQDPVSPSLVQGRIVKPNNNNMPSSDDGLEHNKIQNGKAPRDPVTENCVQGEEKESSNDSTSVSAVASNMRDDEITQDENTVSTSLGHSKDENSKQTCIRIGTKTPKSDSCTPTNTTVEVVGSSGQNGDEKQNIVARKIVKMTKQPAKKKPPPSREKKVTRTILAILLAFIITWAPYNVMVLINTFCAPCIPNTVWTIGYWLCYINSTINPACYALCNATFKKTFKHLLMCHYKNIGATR

[19] = biological target: Dual specificity calcium/calmodulin-dependent 3',5'-cyclic nucleotide phosphodiesterase 1A (Homo sapiens) (UniProt P54750); test: Inhibition of human recombinant PDE1A3 expressed in baculovirus expression system using cAMP as substrate at 1 uM by radiometric assay
Sequence of Dual specificity calcium/calmodulin-dependent 3',5'-cyclic nucleotide phosphodiesterase 1A (Homo sapiens) (P54750 whole entry): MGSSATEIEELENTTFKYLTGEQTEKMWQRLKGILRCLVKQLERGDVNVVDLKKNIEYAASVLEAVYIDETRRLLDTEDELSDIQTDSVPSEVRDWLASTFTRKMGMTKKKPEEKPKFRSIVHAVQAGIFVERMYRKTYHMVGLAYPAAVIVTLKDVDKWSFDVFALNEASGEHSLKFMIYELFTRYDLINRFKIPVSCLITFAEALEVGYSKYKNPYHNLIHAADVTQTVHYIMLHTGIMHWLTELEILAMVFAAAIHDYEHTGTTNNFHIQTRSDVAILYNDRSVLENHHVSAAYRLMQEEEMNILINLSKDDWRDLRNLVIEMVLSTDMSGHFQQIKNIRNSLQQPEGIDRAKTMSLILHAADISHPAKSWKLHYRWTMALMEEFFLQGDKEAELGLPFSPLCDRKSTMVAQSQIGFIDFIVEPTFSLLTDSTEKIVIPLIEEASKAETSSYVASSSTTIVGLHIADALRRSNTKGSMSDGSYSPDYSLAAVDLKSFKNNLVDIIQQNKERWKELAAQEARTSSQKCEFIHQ

[20] = biological target: cGMP-inhibited 3',5'-cyclic phosphodiesterase 3A (Homo sapiens) (UniProt Q14432); test: Inhibition of human recombinant PDE3A expressed in baculovirus expression system using cAMP as substrate at 1 uM by radiometric assay
Sequence of cGMP-inhibited 3',5'-cyclic phosphodiesterase 3A (Homo sapiens) (Q14432 whole entry, the tested form may be a part): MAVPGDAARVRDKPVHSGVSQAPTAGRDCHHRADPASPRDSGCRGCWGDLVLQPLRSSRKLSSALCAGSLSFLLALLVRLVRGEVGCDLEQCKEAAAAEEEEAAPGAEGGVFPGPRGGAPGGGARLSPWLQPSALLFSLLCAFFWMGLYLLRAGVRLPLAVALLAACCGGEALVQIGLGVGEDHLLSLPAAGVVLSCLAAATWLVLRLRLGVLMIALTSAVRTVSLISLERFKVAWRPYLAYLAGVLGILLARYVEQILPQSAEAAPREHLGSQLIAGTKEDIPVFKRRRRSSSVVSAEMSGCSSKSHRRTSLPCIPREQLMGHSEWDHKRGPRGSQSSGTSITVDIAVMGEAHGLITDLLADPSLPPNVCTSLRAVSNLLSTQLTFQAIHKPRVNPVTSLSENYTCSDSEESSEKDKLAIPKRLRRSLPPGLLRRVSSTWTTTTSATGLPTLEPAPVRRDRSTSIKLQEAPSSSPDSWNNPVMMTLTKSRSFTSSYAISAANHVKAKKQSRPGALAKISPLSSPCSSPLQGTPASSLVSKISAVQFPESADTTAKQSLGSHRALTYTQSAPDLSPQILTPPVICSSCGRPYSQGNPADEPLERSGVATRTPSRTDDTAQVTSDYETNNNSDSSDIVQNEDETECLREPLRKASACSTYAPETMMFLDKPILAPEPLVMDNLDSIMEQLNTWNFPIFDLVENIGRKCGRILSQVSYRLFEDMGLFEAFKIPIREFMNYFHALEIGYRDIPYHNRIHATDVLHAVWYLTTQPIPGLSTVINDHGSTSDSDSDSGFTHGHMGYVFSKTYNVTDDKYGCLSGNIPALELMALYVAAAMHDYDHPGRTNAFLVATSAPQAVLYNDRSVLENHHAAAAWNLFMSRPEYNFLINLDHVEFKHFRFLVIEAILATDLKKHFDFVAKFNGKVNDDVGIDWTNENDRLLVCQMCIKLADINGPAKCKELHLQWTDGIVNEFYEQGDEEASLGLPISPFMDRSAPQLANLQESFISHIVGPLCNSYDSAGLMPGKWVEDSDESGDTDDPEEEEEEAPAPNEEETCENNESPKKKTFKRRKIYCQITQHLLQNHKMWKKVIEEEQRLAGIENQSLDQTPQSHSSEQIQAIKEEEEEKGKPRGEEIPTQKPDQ

[21] = biological target: cGMP-specific 3',5'-cyclic phosphodiesterase (Homo sapiens) (UniProt O76074); test: Inhibition of human recombinant PDE5 catalytic domain expressed in baculovirus expression system using […] as substrate at 1 uM by radiometric assay
[22] = biological target: 3',5'-cyclic-AMP phosphodiesterase 4A (Homo sapiens, UniProt P27815); test: Inhibition of human recombinant PDE4A4 expressed in baculovirus expression system using cAMP as substrate by radiometric assay
Sequence of 3',5'-cyclic-AMP phosphodiesterase 4A (P27815 whole entry): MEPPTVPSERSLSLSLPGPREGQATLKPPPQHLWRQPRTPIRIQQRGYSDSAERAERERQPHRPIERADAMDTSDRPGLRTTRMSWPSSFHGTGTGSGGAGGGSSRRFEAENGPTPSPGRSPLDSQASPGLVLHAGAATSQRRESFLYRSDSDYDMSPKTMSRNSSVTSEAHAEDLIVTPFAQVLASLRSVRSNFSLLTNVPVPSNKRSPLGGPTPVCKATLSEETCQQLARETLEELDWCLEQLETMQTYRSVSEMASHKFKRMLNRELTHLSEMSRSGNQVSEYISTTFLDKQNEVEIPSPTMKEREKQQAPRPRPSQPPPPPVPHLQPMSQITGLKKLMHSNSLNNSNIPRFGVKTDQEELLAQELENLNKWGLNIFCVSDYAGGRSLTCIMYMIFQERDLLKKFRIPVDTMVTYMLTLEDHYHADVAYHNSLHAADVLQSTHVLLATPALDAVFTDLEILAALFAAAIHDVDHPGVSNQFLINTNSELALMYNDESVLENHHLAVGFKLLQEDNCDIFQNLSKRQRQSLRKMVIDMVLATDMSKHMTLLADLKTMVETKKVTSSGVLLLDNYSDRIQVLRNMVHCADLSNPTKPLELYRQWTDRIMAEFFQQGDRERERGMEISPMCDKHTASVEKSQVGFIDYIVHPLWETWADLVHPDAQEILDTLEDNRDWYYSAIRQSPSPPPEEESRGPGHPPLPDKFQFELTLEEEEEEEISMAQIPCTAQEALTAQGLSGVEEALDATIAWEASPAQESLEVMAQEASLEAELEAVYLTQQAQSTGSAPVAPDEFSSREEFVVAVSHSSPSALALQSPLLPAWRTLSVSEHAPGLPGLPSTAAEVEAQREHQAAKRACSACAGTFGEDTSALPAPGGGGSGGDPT

[23] = biological target: T1, 3',5'-cyclic-AMP phosphodiesterase 4B; test: Inhibition of human recombinant PDE4B2 expressed in baculovirus expression system using cAMP as substrate by radiometric assay
[24] = biological target: 3',5'-cyclic-AMP phosphodiesterase 4C (Homo sapiens, UniProt Q08493); test: Inhibition of human recombinant PDE4C2 expressed in baculovirus expression system using cAMP as substrate by radiometric assay
Sequence of 3',5'-cyclic-AMP phosphodiesterase 4C (Q08493 whole entry): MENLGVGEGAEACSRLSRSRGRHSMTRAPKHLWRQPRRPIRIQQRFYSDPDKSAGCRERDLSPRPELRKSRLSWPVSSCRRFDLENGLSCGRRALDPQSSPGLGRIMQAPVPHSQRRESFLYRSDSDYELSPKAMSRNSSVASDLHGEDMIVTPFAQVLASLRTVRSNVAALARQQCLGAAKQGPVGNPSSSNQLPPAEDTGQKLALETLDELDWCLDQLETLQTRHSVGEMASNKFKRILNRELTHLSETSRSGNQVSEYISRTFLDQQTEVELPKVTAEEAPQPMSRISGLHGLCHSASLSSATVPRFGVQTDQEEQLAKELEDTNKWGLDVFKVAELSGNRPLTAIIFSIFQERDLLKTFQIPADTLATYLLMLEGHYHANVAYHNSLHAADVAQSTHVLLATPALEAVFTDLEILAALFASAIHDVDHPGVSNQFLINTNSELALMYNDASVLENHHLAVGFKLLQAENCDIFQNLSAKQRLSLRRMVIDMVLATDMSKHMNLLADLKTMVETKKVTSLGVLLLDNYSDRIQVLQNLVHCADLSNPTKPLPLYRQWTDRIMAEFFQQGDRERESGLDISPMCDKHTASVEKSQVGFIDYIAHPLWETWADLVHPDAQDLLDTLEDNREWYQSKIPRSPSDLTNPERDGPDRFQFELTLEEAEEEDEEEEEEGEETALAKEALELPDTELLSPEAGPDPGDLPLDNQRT

[25] = biological target: 3',5'-cyclic-AMP phosphodiesterase 4D (Homo sapiens, UniProt Q08499); test: Inhibition of human recombinant PDE4D3 expressed in baculovirus expression system using cAMP as substrate by radiometric assay
Sequence of 3',5'-cyclic-AMP phosphodiesterase 4D (Q08499 whole entry): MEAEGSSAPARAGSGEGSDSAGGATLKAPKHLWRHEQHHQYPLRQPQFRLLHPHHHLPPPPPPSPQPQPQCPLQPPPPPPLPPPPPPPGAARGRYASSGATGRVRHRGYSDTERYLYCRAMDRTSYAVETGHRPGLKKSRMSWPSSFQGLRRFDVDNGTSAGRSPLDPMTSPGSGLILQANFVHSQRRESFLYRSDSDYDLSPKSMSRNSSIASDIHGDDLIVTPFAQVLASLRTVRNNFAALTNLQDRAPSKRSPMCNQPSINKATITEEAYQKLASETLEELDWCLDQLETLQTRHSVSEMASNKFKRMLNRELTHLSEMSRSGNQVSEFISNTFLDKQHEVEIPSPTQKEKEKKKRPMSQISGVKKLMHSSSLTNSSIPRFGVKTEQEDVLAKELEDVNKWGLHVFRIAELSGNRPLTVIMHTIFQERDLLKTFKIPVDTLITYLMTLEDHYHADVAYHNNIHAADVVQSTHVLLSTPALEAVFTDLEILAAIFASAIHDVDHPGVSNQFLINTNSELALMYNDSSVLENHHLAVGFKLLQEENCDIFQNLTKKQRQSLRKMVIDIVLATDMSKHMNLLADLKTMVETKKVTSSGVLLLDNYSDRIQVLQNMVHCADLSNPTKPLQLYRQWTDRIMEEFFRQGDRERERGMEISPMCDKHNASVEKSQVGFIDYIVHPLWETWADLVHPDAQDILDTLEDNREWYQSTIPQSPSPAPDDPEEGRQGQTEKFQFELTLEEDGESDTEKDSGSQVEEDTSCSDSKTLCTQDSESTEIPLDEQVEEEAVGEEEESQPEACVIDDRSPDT

[26] = Toxicity in ferret assessed as appearance of nausea-like behavior at 10 nmol/kg, IT(Intratracheal) and measured for 4 hrs by behavioral analysis; parameters: species or system Mustela putorius furo; details: in vivo, inhaled_or_intranasal
[27] = Toxicity in ferret assessed as emetic response at 10 nmol/kg, IT(Intratracheal) and measured for 4 hrs by behavioral analysis; parameters: species or system Mustela putorius furo; details: in vivo, inhaled_or_intranasal
[28] = Toxicity in ferret assessed as appearance of nausea-like behavior at 10 nmol/kg,po and measured for 4 hrs by behavioral analysis; parameters: species or system Mustela putorius furo; details: in vivo
[29] = Toxicity in ferret assessed as emetic response at 10 nmol/kg,po and measured for 4 hrs by behavioral analysis; parameters: species or system Mustela putorius furo; details: in vivo
[30] = Toxicity in pilocarpine hydrochloride induced salivation Sprague-Dawley rat model assessed as inhibition of salivary secretion at 1 mM,INH for 10 mins; details: in vivo, inhaled_or_intranasal, 1000 µM
[31] = Toxicity in pilocarpine hydrochloride induced salivation Sprague-Dawley rat model assessed as inhibition of salivary secretion at 3 mM,INH for 10 mins; details: in vivo, inhaled_or_intranasal, 10 min, 3000 µM
[32] = Solubility of compound simulated lung fluid at 1 mg/ml and measured at 0 hr by UPLC-MS analysis; format: physicochemical
[33] = Solubility of compound simulated lung fluid at 1 mg/ml and measured at 2 hr by UPLC-MS analysis; format: physicochemical
[34] = AUC (0 to infinity) in Sprague-Dawley rat lung at 10 ug,IT(Intratracheal) by HPLC-MS/MS analysis; format: ADME, tissue-based; parameters: dose 10 µg, route it(Intratracheal); details: in vivo, inhaled_or_intranasal
[35] = Cmax in Sprague-Dawley rat lung at 10 ug,IT(Intratracheal) by HPLC-MS/MS analysis; format: ADME, tissue-based; parameters: dose 10 µg, route it(Intratracheal); details: inhaled or intranasal
[36] = Half life in Sprague-Dawley rat lung at 10 ug,IT(Intratracheal) by HPLC-MS/MS analysis; format: ADME, tissue-based; details: inhaled or intranasal, dose 10 µg
[37] = AUClast in Sprague-Dawley rat plasma at 10 ug,IT(Intratracheal) by HPLC-MS/MS analysis; format: ADME, cell-free; parameters: dose 10 µg, route it(Intratracheal); details: inhaled or intranasal
[38] = Cmax in Sprague-Dawley rat plasma at 10 ug,IT(Intratracheal) by HPLC-MS/MS analysis; format: ADME, cell-free; parameters: dose 10 µg, route it(Intratracheal); details: inhaled or intranasal

Structure (SMILES): CCOc1cc([C@H](Cc2c(Cl)c[n+]([O-])cc2Cl)OC(=O)c2ccc(CN[C@@](CO)(C(=O)O[C@H]3CN4CCC3CC4)c3ccccc3)s2)ccc1OC
- Ki [1]: 0.631 nM
- IC50 [2]: 12.6 nM
- IC50 [3]: 1 nM
- IC50 [4]: 0.316 nM
- ED50 [5]: 0.007 µmol/kg
- Activity [6]: 80%
- Activity [7]: 83%
- ED50 [8]: 0.007 µmol/kg
- Ratio ED50 [9]: 1
- Activity [10]: 63%
- Activity [11]: 28%
- Activity [12]: 60%
- Activity [13]: 92%
- Activity [14]: 45%
- Activity [15]: 72%
- Activity [16]: >100%
- ED50 [17]: 0.016 µmol/kg
- Ki [18]: 10 nM
- inhibition [19]: inactive
- inhibition [20]: inactive
- inhibition [21]: inactive
- IC50 [22]: 0.0316 nM
- IC50 [23]: 0.0398 nM
- IC50 [24]: 0.0251 nM
- IC50 [25]: 0.398 nM
- Activity [26]: Non-Toxic
- Activity [27]: Non-Toxic
- Activity [28]: Non-Toxic
- Activity [29]: Non-Toxic
- Activity [30]: Non-Toxic
- Activity [31]: Non-Toxic
- solubility at 0 h [32]: 3.3 µg/mL (≈ 4.28 µM)
- solubility at 2 h [33]: 1.6 µg/mL (≈ 2.08 µM)
- AUC [34]: 9242 ng·h/g
- Cmax [35]: 6270 ng/g
- half-life [36]: 4.3 h
- AUC(0-t) [37]: 3.7 ng·h/mL
- Cmax [38]: 2 ng/mL
